System: Plasmodium berghei
Assay: Luciferase/luciferin-expressing antifolate-resistant parasites were used to infect a culture of HepG2 cells that were pre-incubated with compounds. Infected hepatocytes emit light due to the luciferase reaction. Assay results are presented as the percent inhibition of light emission compared to control. […]
Format: functional
Details: sporozoite; for IC90: read-out: LUCIFERASE INFECTION ASSAY - IC90

Structure (SMILES) | IC90 | further results
CN(C)c1cc[n+](CC(=O)Nc2ccc(OC(F)F)cc2)cc1 | > 10 µM | IC50 (HEPG2TOX_HILL_SLOPE 2.17, HEPG2TOX_R_SQUARED 0.89, read-out: LUCIFERASE INFECTION ASSAY - IC50): > 10 µM
CCCCOc1ccc(/C=C/C(=O)NNC(=O)Cc2nc3ccccc3n2C)cc1OCC | 9.1 µM | IC50 (HEPG2TOX_HILL_SLOPE 2.18, HEPG2TOX_R_SQUARED 0.787, PBLUC_HILL_SLOPE 13.4, PBLUC_R_SQUARED 0.401, read-out: LUCIFERASE INFECTION ASSAY - IC50): 7.73 µM
COc1cc(-c2ccc3ncc(-c4cccc(C(C)=O)c4)n3n2)cc(OC)c1OC | 1.39 µM | IC50 (HEPG2TOX_HILL_SLOPE 2.19, HEPG2TOX_R_SQUARED 0.885, PBLUC_HILL_SLOPE 9.54, PBLUC_R_SQUARED 0.57, read-out: LUCIFERASE INFECTION ASSAY - IC50): 1.11 µM
Cc1ccccc1-c1cc2c(cn1)nc(NCc1ccccc1F)n2C | 8.53 µM | IC50 (HEPG2TOX_HILL_SLOPE 2.16, HEPG2TOX_R_SQUARED 0.829, PBLUC_HILL_SLOPE 2.78, PBLUC_R_SQUARED 0.577, read-out: LUCIFERASE INFECTION ASSAY - IC50): 3.87 µM
COc1ccc(N(CCCN2C(=O)c3cccc4cccc(c34)C2=O)C(=O)c2ccccc2Cl)cc1 | 0.656 µM | IC50 (HEPG2TOX_HILL_SLOPE 2.18, HEPG2TOX_R_SQUARED 0.863, PBLUC_HILL_SLOPE 2.29, PBLUC_R_SQUARED 0.755, read-out: LUCIFERASE INFECTION ASSAY - IC50): 0.251 µM
Cc1ccc(-c2cnc3ccc(NC4CCOCC4)nn23)cc1C | 4.53 µM | IC50 (HEPG2TOX_HILL_SLOPE 2.16, HEPG2TOX_R_SQUARED 0.752, PBLUC_HILL_SLOPE 1.94, PBLUC_R_SQUARED 0.563, read-out: LUCIFERASE INFECTION ASSAY - IC50): 1.46 µM
Cc1ccc(S(=O)(=O)N2CCSc3cc(Cl)ccc32)cc1 | 3.49 µM | IC50 (HEPG2TOX_HILL_SLOPE 2.16, HEPG2TOX_R_SQUARED 0.961, PBLUC_HILL_SLOPE 19.3, PBLUC_R_SQUARED 0.449, read-out: LUCIFERASE INFECTION ASSAY - IC50): 3.12 µM
COc1ccc(C2=NN=C/C2=N\Nc2ccccc2)cc1 | 3.89 µM | IC50 (HEPG2TOX_HILL_SLOPE 2.19, HEPG2TOX_R_SQUARED 0.971, PBLUC_HILL_SLOPE 2.49, PBLUC_R_SQUARED 0.567, read-out: LUCIFERASE INFECTION ASSAY - IC50): 1.61 µM
Clc1ccc(-c2cnc3cnc(-c4cccnc4)cn23)cc1 | 1.8 µM | IC50 (HEPG2TOX_HILL_SLOPE 2.16, HEPG2TOX_R_SQUARED 0.901, PBLUC_HILL_SLOPE 2.19, PBLUC_R_SQUARED 0.923, read-out: LUCIFERASE INFECTION ASSAY - IC50): 0.659 µM
COc1cc(C#N)ccc1Oc1ccnc2cc(Cl)ccc12 | > 10 µM | IC50 (HEPG2TOX_HILL_SLOPE 2.16, HEPG2TOX_R_SQUARED 0.625, PBLUC_HILL_SLOPE 9.16, PBLUC_R_SQUARED 0.449, read-out: LUCIFERASE INFECTION ASSAY - IC50): 8.55 µM
COc1ccccc1-c1cc(NC(C)=O)c2ncc(-c3cc(OC)c(OC)c(OC)c3)n2c1 | 2.96 µM | IC50 (HEPG2TOX_HILL_SLOPE 2.18, HEPG2TOX_R_SQUARED 0.547, PBLUC_HILL_SLOPE 12.3, PBLUC_R_SQUARED 0.226, read-out: LUCIFERASE INFECTION ASSAY - IC50): 2.47 µM
COc1ccc(Br)cc1-c1nc(CN2C(=O)NC(C)(c3ccccc3)C2=O)cs1 (stereo not given) | 5.61 µM | IC50 (HEPG2TOX_HILL_SLOPE 2.19, HEPG2TOX_R_SQUARED 0.876, PBLUC_HILL_SLOPE 2.71, PBLUC_R_SQUARED 0.259, read-out: LUCIFERASE INFECTION ASSAY - IC50): 2.49 µM
COC(=O)c1ccc2[nH]c3c(c2c1)CN(c1ncnc2ccccc12)CC3 | 9.79 µM | IC50 (HEPG2TOX_HILL_SLOPE 2.18, 2.21, HEPG2TOX_R_SQUARED 0.310, 0.448, PBLUC_HILL_SLOPE 1.05, 1.29, PBLUC_R_SQUARED 0.612, 0.824, read-out: LUCIFERASE INFECTION ASSAY - IC50): 1.63 µM
O=S(=O)(Nc1cc(F)c(Br)cc1F)c1cc(C(F)(F)F)cc(C(F)(F)F)c1 | > 6.82 µM | IC50 (HEPG2TOX_HILL_SLOPE 2.19, HEPG2TOX_R_SQUARED 0.933, PBLUC_HILL_SLOPE 2.47, PBLUC_R_SQUARED 0.245, read-out: LUCIFERASE INFECTION ASSAY - IC50): 2.98 µM
O=C(NC1CC1)c1ccc(-c2cnc3c(NCc4ccc5c(c4)OCO5)nccn23)cc1 | 2.99 µM | IC50 (HEPG2TOX_HILL_SLOPE 2.15, HEPG2TOX_R_SQUARED 0.624, PBLUC_HILL_SLOPE 12.5, PBLUC_R_SQUARED 0.564, read-out: LUCIFERASE INFECTION ASSAY - IC50): 2.51 µM
CCCNC(=O)c1csc(C(O)c2ccc(C(C)(C)C)cc2)n1 (stereo not given) | > 10 µM | IC50 (HEPG2TOX_HILL_SLOPE 2.18, HEPG2TOX_R_SQUARED 0.794, read-out: LUCIFERASE INFECTION ASSAY - IC50): > 10 µM
CO[C@H]1[C@H](C)O[C@@H](O[C@H]2CC[C@]3(C)C4C[C@@H](O)[C@]5(C)[C@@H](C6=CC(=O)OC6)[C@@H](OC(C)=O)C[C@]5(O)C4CC[C@@H]3C2)C[C@@H]1O (stereo not given in full) | 0.626 µM | IC50 (HEPG2TOX_HILL_SLOPE 2.15, HEPG2TOX_R_SQUARED 0.965, PBLUC_HILL_SLOPE 1.44, PBLUC_R_SQUARED 0.806, read-out: LUCIFERASE INFECTION ASSAY - IC50): 0.136 µM
Cc1ccc2nc(NC(=O)c3ccc(C#N)cc3)c(C(=O)NC3CCCCC3)n2c1 | > 8.22 µM | IC50 (HEPG2TOX_HILL_SLOPE 2.19, HEPG2TOX_R_SQUARED 0.834, PBLUC_HILL_SLOPE 2.97, PBLUC_R_SQUARED 0.239, read-out: LUCIFERASE INFECTION ASSAY - IC50): 4.92 µM
CC(C)c1nc2ccccc2n1Cc1cccc2ccccc12 | 4.17 µM | IC50 (HEPG2TOX_HILL_SLOPE 2.18, HEPG2TOX_R_SQUARED 0.953, PBLUC_HILL_SLOPE 14.4, PBLUC_R_SQUARED 0.432, read-out: LUCIFERASE INFECTION ASSAY - IC50): 3.58 µM
CCOc1ccc(OCC)c(S(=O)(=O)Oc2cccc3ccc(C)nc23)c1 | > 8.52 µM | IC50 (HEPG2TOX_HILL_SLOPE 2.15, HEPG2TOX_R_SQUARED 0.762, PBLUC_HILL_SLOPE 2.2, PBLUC_R_SQUARED 0.11, read-out: LUCIFERASE INFECTION ASSAY - IC50): 7.25 µM
COc1ccc(C2C(C(=O)OCc3cccc4ccccc34)CCC(=O)N2c2ccc(C)cc2)cc1OC (stereo not given) | > 10 µM | IC50 (HEPG2TOX_HILL_SLOPE 2.17, HEPG2TOX_R_SQUARED 0.745, PBLUC_HILL_SLOPE 19.2, PBLUC_R_SQUARED 0.577, read-out: LUCIFERASE INFECTION ASSAY - IC50): 9.58 µM
CCn1c(=O)c(C)nc2cc(C(=O)Nc3ccc(C(C)(C)C)cc3)ccc21 | 1.74 µM | IC50 (HEPG2TOX_HILL_SLOPE 2.17, HEPG2TOX_R_SQUARED 0.922, PBLUC_HILL_SLOPE 3.75, PBLUC_R_SQUARED 0.489, read-out: LUCIFERASE INFECTION ASSAY - IC50): 0.966 µM
c1ccc(-c2cn3ccnc3c(NCc3ccncc3)n2)cc1 | 4.49 µM | IC50 (HEPG2TOX_HILL_SLOPE 2.19, HEPG2TOX_R_SQUARED 0.99, PBLUC_HILL_SLOPE 12.4, PBLUC_R_SQUARED 0.482, read-out: LUCIFERASE INFECTION ASSAY - IC50): 3.76 µM
COc1cc(/C=N/n2cnc3scc(-c4ccc(C)cc4)c3c2=O)ccc1OC(=O)OC(C)(C)C | > 10 µM | IC50 (HEPG2TOX_HILL_SLOPE 2.15, HEPG2TOX_R_SQUARED 0.967, PBLUC_HILL_SLOPE 2.51, PBLUC_R_SQUARED 0.415, read-out: LUCIFERASE INFECTION ASSAY - IC50): 4.26 µM
COc1ccc(OC)c(CCNc2nc3cnc(-c4cncnc4)cc3n2C)c1 | > 10 µM | IC50 (HEPG2TOX_HILL_SLOPE 2.17, HEPG2TOX_R_SQUARED 0.775, PBLUC_HILL_SLOPE 2.72, PBLUC_R_SQUARED 0.417, read-out: LUCIFERASE INFECTION ASSAY - IC50): 4.95 µM
Cc1nnsc1C(=O)Nc1cccc(C(F)(F)F)c1 | 10.6 µM | IC50 (HEPG2TOX_HILL_SLOPE 2.18, HEPG2TOX_R_SQUARED 0.919, PBLUC_HILL_SLOPE 3.32, PBLUC_R_SQUARED 0.374, read-out: LUCIFERASE INFECTION ASSAY - IC50): 5.46 µM
C/C(=N\NC(=N)N)c1ccc(Br)cc1 | > 12.9 µM | IC50 (HEPG2TOX_HILL_SLOPE 2.15, HEPG2TOX_R_SQUARED 0.936, PBLUC_HILL_SLOPE 0.739, PBLUC_R_SQUARED 0.608, read-out: LUCIFERASE INFECTION ASSAY - IC50): 5.11 µM
CCc1cccc2c(C3=CCN(c4ccc([N+](=O)[O-])cn4)CC3)c[nH]c12 | > 10 µM | IC50 (HEPG2TOX_HILL_SLOPE 2.16, 2.30, HEPG2TOX_R_SQUARED 0.931, 0.732, PBLUC_HILL_SLOPE 2.67, 4.10, PBLUC_R_SQUARED 0.259, 0.404, read-out: LUCIFERASE INFECTION ASSAY - IC50): 5.92 µM
CCN1C(=O)N(CC(N)=O)C(=O)C12CCN(Cc1ccc(N(C)c3ccccc3)cc1)CC2 | > 7.34 µM | IC50 (HEPG2TOX_HILL_SLOPE 2.17, HEPG2TOX_R_SQUARED 0.96, PBLUC_HILL_SLOPE 2.1, PBLUC_R_SQUARED 0.458, read-out: LUCIFERASE INFECTION ASSAY - IC50): 3.27 µM
C[C@]12CC[C@H](O)C[C@H]1CCC1C2CC[C@]2(C)[C@@H](C3=CC(=O)OC3)CC[C@]12O (stereo not given in full) | 0.225 µM | IC50 (HEPG2TOX_HILL_SLOPE 2.19, HEPG2TOX_R_SQUARED 0.915, PBLUC_HILL_SLOPE 1.64, PBLUC_R_SQUARED 0.798, read-out: LUCIFERASE INFECTION ASSAY - IC50): 0.0591 µM
